Data as given in patent US5776685A, “Protein kinase C assay” (Joslin Diabetes Center, priority 1996, dated 1998).
Entries after “also recorded” stand apart in the source; their conditions may differ.

What was measured:
[1] = target: T1, rat PKC β-1 (Rattus norvegicus, UniProt P68403); experiment: PKC beta-1 enzymatic activity in detergent cell extracts; type: biochemical; conditions: phospholipid dependent
T1 construct: we inserted the complete protein coding cDNA of rat PKC β-1; made in house; host or cells: Saccharomyces cerevisiae strain 334, YEp51 with GAL10 promoter; crude detergent cell extract
T1 sequence (P68403 2-671): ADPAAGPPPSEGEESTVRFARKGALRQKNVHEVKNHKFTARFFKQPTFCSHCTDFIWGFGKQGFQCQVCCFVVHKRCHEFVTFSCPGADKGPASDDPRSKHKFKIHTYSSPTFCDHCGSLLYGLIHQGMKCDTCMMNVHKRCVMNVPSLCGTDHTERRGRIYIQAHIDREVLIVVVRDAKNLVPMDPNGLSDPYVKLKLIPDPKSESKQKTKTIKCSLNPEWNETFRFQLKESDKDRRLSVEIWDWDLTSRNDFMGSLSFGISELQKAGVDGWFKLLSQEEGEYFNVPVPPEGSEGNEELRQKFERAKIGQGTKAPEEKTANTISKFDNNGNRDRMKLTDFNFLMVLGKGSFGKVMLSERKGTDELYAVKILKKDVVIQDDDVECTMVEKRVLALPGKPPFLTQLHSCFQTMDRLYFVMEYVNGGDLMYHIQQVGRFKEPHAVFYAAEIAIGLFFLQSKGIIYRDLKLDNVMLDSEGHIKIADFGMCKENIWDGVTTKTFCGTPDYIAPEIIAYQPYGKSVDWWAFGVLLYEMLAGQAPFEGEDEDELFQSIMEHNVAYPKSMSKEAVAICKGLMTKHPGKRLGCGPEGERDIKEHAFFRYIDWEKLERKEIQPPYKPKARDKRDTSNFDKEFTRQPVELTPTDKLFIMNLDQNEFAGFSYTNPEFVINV
Description: Duplicate measurements have routinely been made in our experiments. […] The methods described here are for the bovine PKC alpha experiments. The same or similar methods were used in the rat PKC beta-1 experiments.
PKC catalytic activity. PKC catalytic activity was measured as described in Hu et al., 1990, J. Biol. Chem. 265: 13864 by phosphorylation of 3 μg of the specific substrate peptide […] (Seq. ID No. 7) (Gibco, BRL) in the presence of 5 μCi [gamma-32P]ATP (3000 Ci/mmol) in 125 μl of 5-fold diluted cell extract for 30 min. at 25 degrees C with combinations of 160 μg/ml phosphatidylserine (Avanti Polar Lipids, Inc.), 1 μm PMA and 5 mM CaCl2. […] Bound radioactivity was determined by liquid scintillation spectroscopy.
To compare the enzymatic activity of normal and truncated PKC forms, phosphorylation of the PKC-specific substrate [ser^25 ]PKC19-31 a derivative of the pseudosubstrate sequence was measured in detergent cell extracts in response to combinations of phosphatidylserine, the phorbol ester PMA (phorbol-12-myristate-13-acetate), and Ca^2+. In the presence of phosphatidylserine alone only a background level of phosphorylation was detected in all samples including control cells which likely represents the activity of other endogenous yeast protein kinases.

[2] = tested on: bovine PKC alpha; experiment: PKC catalytic activity in vitro (phosphorylation of [ser25]PKC19-31 in detergent cell extracts); type: biochemical; conditions: for PMA and Ca^2+ stimulated mutant PKC activity: Ca^2+: Ca^2+ stimulation of in vitro catalytic activity; for stimulation of catalytic activity by phorbol ester: PMA + phosphatidylserine; for PMA and Ca^2+ stimulated mutant PKC activity: PMA: PMA stimulation, common symbol for in vitro catalytic activity and PMA-mediated increase of cell doubling time; for PMA and Ca^2+ stimulated mutant PKC activity: -: no stimulus (basal), common symbol for in vitro catalytic activity and cell doubling time response
Description: FIG. 4 is a graph which compares PKC mutant and wild type catalytic activities in vitro. […] Catalytic activity was stimulated by combinations of phosphatidylserine (PS), the phorbol ester PMA and calcium ions (Ca^2+). PS, open; PMA+PS, solid; Ca^2+ +PS, diagonally striped.
Cell lysis. About 6×10^8 expressing cells were washed in PBS and were resuspended in 1 ml lysis buffer containing 1% Triton X100, 50 mM Hepes pH 7.4, 15-mM NaC1, 5 mM EDTA, 5 mM EGTA, 10 μg/ml pepstatin, 40 μg/ml leupeptin, 10 μg/ml aprotinin and 200 μg/ml PMSF. Cell suspensions mixed with the same volume of acid washed glass beads (450-500 μm) were lysed mechanically by six 30 second vortexing steps interrupted by cooling on ice for at least 30 second in 50 ml screw cap polypropylene tubes. The lysate was cleared by 4,000 g centrifugation for 15 minutes at 4 degrees C and stored at […] for up to several weeks.
PKC catalytic activity. […] Phosphatidylserine in chloroform, with or without PMA was evaporated under N2 to dryness, resuspended in 20 mM Tris pH 7.5, mixed and sonicated at 4 degrees C for 45 seconds before use. To terminate the reaction the sample was placed on phosphocellulose paper (Whatman P81) which was repeatedly washed in 75 mM phosphoric acid. Bound radioactivity was determined by liquid scintillation spectroscopy.

[3] = tested on: Saccharomyces cerevisiae strain 334 expressing bovine PKC alpha; experiment: 45Ca2+ uptake into yeast cells expressing PKC alpha forms; type: cell-based; conditions: for Ca2+ uptake after PMA stimulation over the control cell background: 1 μM PMA; for increase in Ca^2+ uptake (basal): without PMA stimulation, versus control cells
Description: FIG. 5 is a graph of the modulation of extracellular Ca2+uptake by PKC alpha wild type and mutants.
^45 Ca^2 + uptake. Expressing yeast cells after 16 h in 2% galactose medium were washed with PBS when reaching 0.5 O.D.600. 10^7 cells were suspended in 100 μl of 50 mM MES pH 6.5, 5 mM MgSO4 and incubated with 1 μM PMA for 1 h at 30 degrees C under shaking on 96-well plates. Subsequently uptake of 2 μCi 45 Ca2+ at 300 μM CaCl2 was measured for 2 hours. Cells were rapidly transferred to Multiscreen filtration microtiter plates (Millipore) and washed four times with 200 μl of 10 mM MES, 10 mM Tris, 35 mM CaC12 pH 6.0. Filters were dried and cell-associated radioactivity was determined by liquid scintillation spectroscopy.
Ca^2+ influx has been reported in response to PKC activation in a variety of eukaryotic cells such as Nitella syncarpa plasmalemma, Aplysia bag cell neurons, rat ventricular myocytes and rat pituitary cells. To test whether the measured catalytic activities and the yeast phenotype correlate with other biological responses mediated by PKC, ^45 Ca^2+ uptake into expressing cells was determined after PMA stimulation. […] These responses are consistent with the catalytic activities and phenotypic responses of the mutants: elevated basal activity of ND153, full and reduced phorbol ester-stimulated activity of normal PKC alpha and D172-225, respectively, and lack of activity for CD26.

[4] = tested on: Saccharomyces cerevisiae strain 334 expressing bovine PKC alpha; experiment: Phenotypic screen of PKC alpha mutant activity by yeast colony size on agar plates; type: cell-based; conditions: 2% galactose; for yeast colony size: 3 days; for yeast colony size / phenotype: independent of phorbol ester
Description: The phenotypic screen of PKC alpha mutant activity by yeast colony size was performed as follows. […] Plates (9 cm diameter) were photograph after 3 days.
Galactose stimulation of cDNA expression resulted for some PKC forms in specific, decreased yeast colony sizes which were either dependent on or independent of phorbol ester activation after 3 days. […] Microscopically small colonies expressing ND153 grew to visible sizes with rates independently of PMA. Colonies expressing PKC alpha grew even more slowly to visible sizes during continued incubation in the presence of PMA.

[5] = tested on: bovine PKC alpha; experiment: [3H]PDBu binding to yeast spheroplasts expressing PKC alpha forms; conditions: 14 nM [3H]PDBu
Description: FIG. 3 is a graph of phorbol ester binding to cells expressing PKC alpha wild type and mutant proteins.
Phorbol ester binding. About 6×10^8 expressing cells were washed twice in 10 mM K-phosphate buffer pH 7.0, 20 mM EDTA, once in 1M sorbitol and were resuspended in 10 ml 10 mM K-phosphate buffer pH 7.0, 1.1M sorbitol, 0.5 mM CaC12. Cells were incubated with 1 U glusulase (beta-glucuronidase/arylsulfatase from Helix pomatia, Boehringer Mannheim) for about 1 hour under shaking at 30 degrees C to remove the cell wall until test cell suspensions cleared in H2 O due to cell lysis.
Both were about 13-fold elevated over background levels of control cells. Similar findings have been reported for PKC overexpression in transfected mammalian fibroblasts. […] The internal deletion of aa 172-225 led to phorbol ester binding levels reduced by 60% compared to normal PKC alpha, a potential consequence of the removal of parts of the C2 domain.

[6] = tested on: Saccharomyces cerevisiae strain 334 expressing bovine PKC alpha; experiment: Cell doubling time of yeast cultures expressing PKC alpha wild type and mutant cDNAs; type: cell-based; conditions: 2% galactose; for average cell doubling time: synthetic minimal medium, CD26 and ND153 values phorbol ester-independent
Description: FIG. 2 is a graph of cell doubling time of yeast cultures expressing PKC alpha wild type and mutant cDNAs. Freshly saturated cultures expressing control plasmids (Cont.), normal PKC alpha (PKCa) or deletion mutants D172-225, ND153 or CD26 were diluted to low cell densities. Cell growth was followed on a roller at 30 degrees C to measurable cell densities of the logarithmic growth phase at 0.2-0.6 O.D. 600. […] Average doubling times were calculated.
Yeast strains and culture conditions. PKC expression plasmids and YEp51 or YEp52 as controls were introduced into Saccharomyces cerevisiae strain 334 [MAT alpha, pep 4-3, prb1-122, ura 3-52; leu2-3, 112, reg1-501, gal1]by lithium acetate transformation See e.g., Ito et al. 1983, J. Bacterial. 153: 163. Cells were routinely grown at 30 degrees C on a culture roller or shaker in liquid culture or on 1.5% agar plates. The synthetic medium contained 2% glucose and was leucine-free to select for stable propagation of the expression plasmids. Expressing yeast colonies were identified phenotypically by replica plating on medium containing or lacking PMA. Phenol extracts of crude cell lysates were prepared to re-transform Escherichia coli DH5 alpha. PKC mutants were characterized by DNA sequencing and defined plasmids were re-introduces into S. cerevisiae 334. These strains were used in all experiments shown. 50 ml cultures were routinely inoculated from freshly saturated cultures and grown for 16 h to an optical density of 0.4 at O.D.600.
Cell doubling times were measured by O.D.600 reading of liquid cultures in the presence of 2% galactose as shown in FIG. 2 to test whether they correlate with the specific phenotypes (colony size) caused by normal mutant PKC alpha. […] A normal 4 hours doubling time was measured for all constructs in the absence of galactose.

Substance	stimulation of PKC β-1 catalytic activity [1]	PMA and Ca^2+ stimulated mutant PKC activity: Ca^2+ [2]	stimulation of catalytic activity by phorbol ester [2]	PMA and Ca^2+ stimulated mutant PKC activity: PMA [2]	PMA and Ca^2+ stimulated mutant PKC activity: - [2]	catalytic activity in the presence of phosphatidylserine alone (elevated level) [2]	Ca2+ uptake after PMA stimulation over the control cell background [3]	increase in Ca^2+ uptake (basal) [3]	yeast colony size ([4]; absence of phorbol ester)	yeast colony size ([4]; phorbol ester activation (1 uM PMA))	[3H]PDBu binding level over background levels of control cells [5]	increase in the cell doubling time ([6]; absence of phorbol ester) [%]	average cell doubling time ([6]; absence of phorbol ester) [h]	cell doubling time ([6]; phorbol ester stimulation (1 μM PMA)) [h]	yeast colony size / phenotype [4]	catalytic activity under any conditions ([2]; combinations of phosphatidylserine, PMA and calcium)
diacylglycerol	stimulated by diacylglycerol similar to PMA															
PKC alpha: bovine protein kinase C alpha, full length, expressed in yeast		++	more than 20 fold	++	-	no catalytic activity was detected	up to 4 fold	1.4 fold	reduced colony sizes	substantially reduced yeast colony size; also recorded: substantially further decreased to microscopically small sizes	about 13 fold	50	6	16		
ND153: PKCa deletion of aa 1-153		++	PMA-unresponsive	+	+	10 fold	unaffected by phorbol ester	~3 fold			virtually background		12		microscopically small colonies independent of phorbol ester activation	
CD26: PKCa deletion of aa 647-672		-		-	-		unaffected by phorbol ester	same basal response as control cells			about 13 fold		4		wild-type phenotype under any condition	no activity was detected
